Compound in the experiment: OCCC(F)(F)C(F)(F)C(F)(F)C(F)(F)F [4:2 Fluorotelomer alcohol] (in DMSO)
As to the kind of experiment: level (log10 ratio to DMSO vehicle control); higher = higher biomarker level / cell amount than vehicle control. The procedure:
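BioMAP Diversity Plus panel of 12 human primary cell co-culture systems (3C, 4H, LPS, SAg, BT, BF4T, BE3C, CASM3C, HDF3CGF, KF3CT, MyoF, Mphg). Compounds were added 1 h before stimulation and left for 24 h (MyoF 48 h; BT 72 h for soluble read-outs or 6 d for IgG). Biomarkers were read by ELISA, cytotoxicity by SRB, PBMC viability and proliferation by Alamar Blue. Each well value was divided by the mean of 8 DMSO control wells on the same plate and log10 transformed; duplicate blinded samples were tested at 4 concentrations.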

Results on 34 test systems are retold here after the supplement of paper PMC10331698.

± gives the standard deviation of the averaged measurements.

As for 3C:CD87/uPAR, the “level (log10)” value by setting is: (6700 nM) -0.015 ± 0.014; (20000 nM) -0.0215 ± 0.028; (60000 nM) 0.005 ± 0.0071.
The corresponding values for 3C:CXCL8/IL-8 are -0.002, 0.017 ± 0.031 and 0.044 ± 0.059.
The corresponding values for 3C:CXCL9/MIG are -0.01 ± 0.0057, -0.0025 ± 0.0078 and 0 ± 0.0042.
Taken in the same sequence, the figures for 3C:HLA-DR were -0.019, -0.0145 ± 0.0092 and 0 ± 0.011.
With 3C:Proliferation, the “level (log10)” value is -0.011 ± 0.014 (6700 nM), -0.0175 ± 0.032 (20000 nM) and 0.013 ± 0.024 (60000 nM).
Taken in the same sequence, the figures for 3C:SRB were -0.006 ± 0.0085, -0.0065 ± 0.011 and -0.0045 ± 0.0092.
For 4H:CCL2/MCP-1, the “level (log10)” value by setting is: (6700 nM) -0.101 ± 0.0071; (20000 nM) -0.0325 ± 0.0064; (60000 nM) 0.0115 ± 0.025.
Taken in the same sequence, the figures for 4H:CCL26/Eotaxin-3 were -0.018 ± 0.016, -0.0045 ± 0.0035 and -0.0015 ± 0.0035.
The corresponding values for 4H:CD62P/P-selectin are -0.0235 ± 0.037, -0.02 ± 0.0071 and 0.025 ± 0.023.
The corresponding values for 4H:CD87/uPAR are -0.026 ± 0.011, -0.0105 ± 0.023 and -0.005 ± 0.0028.
As for 4H:CD106/VCAM-1, the “level (log10)” value runs as follows: (6700 nM) -0.025 ± 0.023; (20000 nM) -0.0105 ± 0.013; (60000 nM) 0.0085 ± 0.0078.
Turning to 4H:SRB, the “level (log10)” value is -0.0005 ± 0.012 (6700 nM), -0.004 ± 0.0014 (20000 nM) and 0.0135 ± 0.015 (60000 nM).
The corresponding values for 4H:VEGFR2 are -0.071 ± 0.035, -0.021 ± 0.033 and -0.0205 ± 0.0064.
On to BE3C:CD54/ICAM-1, for which the “level (log10)” value (6700 nM) is -0.019 ± 0.024, the “level (log10)” value (20000 nM) is -0.008 ± 0.0057 and the “level (log10)” value (60000 nM) was determined as 0.01 ± 0.0028.
Consider BE3C:CD87/uPAR, for which the “level (log10)” value was 0.005 ± 0.0099 (6700 nM), -0.0025 ± 0.0064 (20000 nM) and 0.0145 ± 0.0021 (60000 nM).
Taken in the same sequence, the figures for BE3C:CXCL8/IL-8 were -0.001 ± 0.0085, -0.006 ± 0.0014 and 0.043 ± 0.04.
Taken in the same sequence, the figures for BE3C:CXCL9/MIG were -0.0055 ± 0.016, 0.0065 ± 0.0078 and 0.0025 ± 0.0021.
Taken in the same sequence, the figures for BE3C:CXCL10/IP-10 were -0.009 ± 0.021, 0.002 ± 0.016 and -0.0015 ± 0.0035.
For BE3C:CXCL11/I-TAC, the “level (log10)” value by setting is: (6700 nM) 0.004 ± 0.0014; (20000 nM) 0.0075 ± 0.0078; (60000 nM) 0.0155 ± 0.012.
As for BE3C:EGFR, the “level (log10)” value is -0.0165 ± 0.022 (6700 nM), -0.002 ± 0.018 (20000 nM) and 0.0315 ± 0.011 (60000 nM).
The corresponding values for BE3C:HLA-DR are -0.0265 ± 0.052, -0.0075 ± 0.03 and 0.002 ± 0.0099.
Taken in the same sequence, the figures for BE3C:IL-1alpha were -0.0425 ± 0.026, -0.0345 ± 0.016 and -0.017 ± 0.0085.
Taken in the same sequence, the figures for BF4T:CCL2/MCP-1 were 0.0035 ± 0.073, -0.0015 ± 0.021 and 0.0275 ± 0.005.
Take BF4T:CCL26/Eotaxin-3: the “level (log10)” value was -0.037 ± 0.068 (6700 nM), 0.016 ± 0.073 (20000 nM) and 0.001 ± 0.082 (60000 nM).
The corresponding values for BF4T:CD54/ICAM-1 are -0.0055 ± 0.025, 0.0135 ± 0.03 and -0.003 ± 0.034.
The corresponding values for BF4T:CD90 are -0.0285 ± 0.0078, -0.0085 ± 0.03 and -0.0125 ± 0.0064.
The corresponding values for BF4T:CD106/VCAM-1 are -0.049 ± 0.083, 0.022 ± 0.062 and 0.0485 ± 0.083.
BF4T:CXCL8/IL-8: the “level (log10)” value is, setting by setting: (6700 nM) 0.0235 ± 0.039; (20000 nM) 0.035 ± 0.0014; (60000 nM) 0.082 ± 0.0014.
For the test system BF4T:IL-1alpha, the “level (log10)” value was -0.0245 ± 0.028 (6700 nM), 0.004 ± 0.0028 (20000 nM) and 0.0055 ± 0.016 (60000 nM).
Taken in the same sequence, the figures for BF4T:Keratin 8/18 were -0.026 ± 0.021, -0.0185 ± 0.039 and 0.017 ± 0.0028.
Taken in the same sequence, the figures for BF4T:MMP-1 were -0.008 ± 0.031, -0.0005 ± 0.036 and 0.0085 ± 0.015.
Taken in the same sequence, the figures for BF4T:MMP-3 were -0.0135 ± 0.021, -0.008 ± 0.013 and -0.011 ± 0.014.
As to BF4T:MMP-9, the “level (log10)” value is -0.0075 ± 0.03 (6700 nM), -0.013 ± 0.0071 (20000 nM) and -0.011 ± 0.031 (60000 nM).
Taken in the same sequence, the figures for BF4T:PAI-I were -0.0075 ± 0.023, 0.0005 ± 0.035 and 0.0005 ± 0.00071.
